For this assay, the target named is T1, chimeric human H3 receptor (Homo sapiens, UniProt Q9Y5N1).
T1 construct: rat Galpha-i2 (Gnai2, rat); made in house; host or cells: Sf9 insect cells (baculovirus); P2 membranes
The assay is described as follows: Chimeric human H3 receptor screening GTP binding assay (inhibition of histamine-stimulated GTP-gamma35S binding, Example 8). Format: biochemical. An outline of the steps:
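Sf9 membranes co-expressing chimeric human H3 receptor and heterotrimeric G-protein (35 μg protein) incubated 60 min at room temperature with 4 μM compound, 1 μM histamine and 125 pM GTP-gamma35S in pH 7.4 buffer with 10 μM GDP. Filter-bound radioactivity, nonspecific (10 μM GTP-gammaS) subtracted, reported as % inhibition of histamine signal.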

Setting [1] is: symbol ! in Ki, test compound 4 μM, 1 μM histamine, read-out: percent inhibition of agonist-induced GTP-gammaS binding to H3.
The mark [2] stands for this setting: 1 h, assay of Example 8, symbol "!" in column headed Ki, read-out: percent inhibition of agonist-induced GTP-gammaS binding to H3.
Setting [3] is: 1 h, assay described in Example 8, symbol "!" in column headed Ki, read-out: Ki ("!": percent inhibition of agonist-induced GTP-gammaS binding to H3).

Read-outs that look alike come from different tables or passages of the source.

As usually defined, the inhibition is how much of the control response was suppressed.

T1 sequence (Q9Y5N1 with tags, fused parts or gaps): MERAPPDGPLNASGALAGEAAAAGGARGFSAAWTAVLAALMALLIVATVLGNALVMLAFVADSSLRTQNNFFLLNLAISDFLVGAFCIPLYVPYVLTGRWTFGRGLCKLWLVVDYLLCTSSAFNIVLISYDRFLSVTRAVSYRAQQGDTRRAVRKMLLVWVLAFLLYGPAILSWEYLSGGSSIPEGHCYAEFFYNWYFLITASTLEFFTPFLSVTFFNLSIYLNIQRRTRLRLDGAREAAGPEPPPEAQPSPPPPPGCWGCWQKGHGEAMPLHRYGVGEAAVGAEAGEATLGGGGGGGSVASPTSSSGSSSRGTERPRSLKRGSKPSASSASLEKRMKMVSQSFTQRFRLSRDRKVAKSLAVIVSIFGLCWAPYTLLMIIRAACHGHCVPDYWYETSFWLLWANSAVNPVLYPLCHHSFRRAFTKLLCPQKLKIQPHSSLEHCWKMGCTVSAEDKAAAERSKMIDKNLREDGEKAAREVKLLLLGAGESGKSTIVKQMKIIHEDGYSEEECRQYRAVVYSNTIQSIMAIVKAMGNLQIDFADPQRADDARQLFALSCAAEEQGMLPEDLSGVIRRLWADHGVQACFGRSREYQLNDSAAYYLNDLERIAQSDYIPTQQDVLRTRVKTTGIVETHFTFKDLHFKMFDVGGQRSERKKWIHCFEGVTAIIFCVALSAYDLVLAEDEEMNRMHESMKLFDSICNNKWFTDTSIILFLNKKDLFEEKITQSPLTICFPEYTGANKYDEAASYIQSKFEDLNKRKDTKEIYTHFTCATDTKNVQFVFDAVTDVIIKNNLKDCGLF

On to `Fc1ccccc1CN1CCc2nc(N3CCN(C4CCC4)CC3)ncc2C1` [Compound 611, 2-(4-cyclobutylpiperazin-1-yl)-6-(2-fluorobenzyl)-5,6,7,8-tetrahydropyrido[4,3-d]pyrimidine], for which the inhibition at 4 µM under setting [1] is not below 90%.
The same measure, in the same setting: with `CC(c1ccc2ccccc2n1)N1CCc2c(ncnc2N2CCN(C3CCC3)CC2)C1` (centres unmarked) [Compound 130, 4-(4-cyclobutylpiperazin-1-yl)-7-(1-quinolin-2-ylethyl)-5,6,7,8-tetrahydropyrido[3,4-d]pyrimidine] the figure was not below 90%.
On to `CC(C)CCC(=O)N1CCc2c(ncnc2N2CCN(C3CCC3)CC2)C1` [Compound 46, 4-(4-cyclobutylpiperazin-1-yl)-7-(4-methylpentanoyl)-5,6,7,8-tetrahydropyrido[3,4-d]pyrimidine], for which the inhibition at 4 µM under setting [1] is not below 90%.
For the compound `O=C(C1CCCC1)N1CCc2cnc(N3CCN(C4CCC4)CC3)nc2CC1` [Compound 217, 2-(4-cyclobutylpiperazin-1-yl)-7-(cyclopentylcarbonyl)-6,7,8,9-tetrahydro-5H-pyrimido[4,5-d]azepine], under setting [2], the inhibition at 4 µM was not below 90%.
Turning to `CC(C)(C)c1ccc(Oc2ncccc2C(=O)N2CCc3cnc(N4CCN(C5CCC5)CC4)nc3CC2)cc1` [Compound 494, 7-{[2-(4-tert-butylphenoxy)pyridin-3-yl]carbonyl}-2-(4-cyclobutylpiperazin-1-yl)-6,7,8,9-tetrahydro-5H-pyrimido[4,5-d]azepine], the inhibition at 4 µM under setting [3] is not below 90%.
With `COc1c(Cl)cc(Cl)c(OC)c1C(=O)N1CCc2cnc(N3CCN(C4CCC4)CC3)nc2CC1` [Compound 427, 2-(4-cyclobutylpiperazin-1-yl)-7-(3,5-dichloro-2,6-dimethoxybenzoyl)-6,7,8,9-tetrahydro-5H-pyrimido[4,5-d]azepine], the inhibition at 4 µM under setting [3] was not below 90%.
On to `O=C(c1ccccc1OC(F)(F)F)N1CCc2cnc(N3CCN(C4CCC4)CC3)nc2CC1` [Compound 412, 2-(4-cyclobutylpiperazin-1-yl)-7-[2-(trifluoromethoxy)benzoyl]-6,7,8,9-tetrahydro-5H-pyrimido[4,5-d]azepine], for which the inhibition at 4 µM under setting [3] was not below 90%.
As for `COc1cccc(/C=C/C(=O)N2CCc3cnc(N4CCN(C5CCC5)CC4)nc3CC2)c1` [Compound 564, 2-(4-cyclobutylpiperazin-1-yl)-7-[(2E)-3-(3-methoxyphenyl)prop-2-enoyl]-6,7,8,9-tetrahydro-5H-pyrimido[4,5-d]azepine], the inhibition at 4 µM under setting [3] was not below 90%.
For the compound `COc1ccccc1CC(=O)N1CCc2cnc(N3CCN(C4CCC4)CC3)nc2CC1` [Compound 306, 2-(4-cyclobutylpiperazin-1-yl)-7-[(2-methoxyphenyl)acetyl]-6,7,8,9-tetrahydro-5H-pyrimido[4,5-d]azepine], under setting [2], the inhibition at 4 µM is not below 90%.
`O=C(Cc1ccc(-c2ccccc2)cc1)N1CCc2cnc(N3CCN(C4CCC4)CC3)nc2CC1` [Compound 518, 7-(biphenyl-4-ylacetyl)-2-(4-cyclobutylpiperazin-1-yl)-6,7,8,9-tetrahydro-5H-pyrimido[4,5-d]azepine]: the inhibition at 4 µM under setting [3] was not below 90%.
In the case of `O=C(C1CC1)N1CCc2c(ncnc2N2CCN(C3CCC3)CC2)C1` [Compound 52, 4-(4-cyclobutylpiperazin-1-yl)-7-(cyclopropylcarbonyl)-5,6,7,8-tetrahydropyrido[3,4-d]pyrimidine], under setting [1], the inhibition at 4 µM is not below 90%.
With `c1ccc2ncc(CN3CCc4ncnc(N5CCN(C6CCC6)CC5)c4CC3)cc2c1` [Compound 152, 4-(4-cyclobutylpiperazin-1-yl)-7-(quinolin-3-ylmethyl)-6,7,8,9-tetrahydro-5H-pyrimido[4,5-d]azepine], the inhibition at 4 µM under setting [1] is not below 90%.
In the case of `CCc1ccc(C(=O)N2CCc3cnc(N4CCN(C5CCC5)CC4)nc3CC2)s1` [Compound 451, 2-(4-cyclobutylpiperazin-1-yl)-7-[(5-ethyl-2-thienyl)carbonyl]-6,7,8,9-tetrahydro-5H-pyrimido[4,5-d]azepine], under setting [3], the inhibition at 4 µM is not below 90%.
On to `Cc1cc(CN2CCc3c(ncnc3N3CCN(C4CCC4)CC3)C2)n(C)n1` [Compound 77], for which the inhibition at 4 µM under setting [1] was not below 90%.
Regarding `COc1ccccc1CN1CCc2c(ncnc2N2CCN(C3CCC3)CC2)C1` [Compound 78, 4-(4-cyclobutylpiperazin-1-yl)-7-(2-methoxybenzyl)-5,6,7,8-tetrahydropyrido[3,4-d]pyrimidine], the inhibition at 4 µM under setting [1] was not below 90%.
Consider `CCOc1cc(C(=O)N2CCc3cnc(N4CCN(C5CCC5)CC4)nc3CC2)cc(OCC)c1OCC` [Compound 385, 2-(4-cyclobutylpiperazin-1-yl)-7-(3,4,5-triethoxybenzoyl)-6,7,8,9-tetrahydro-5H-pyrimido[4,5-d]azepine], for which, under setting [3], the inhibition at 4 µM is not below 90%.
With `Cc1noc(C)c1C(=O)N1CCc2cnc(N3CCN(C4CCC4)CC3)nc2CC1` [Compound 201, 2-(4-cyclobutylpiperazin-1-yl)-7-[(3,5-dimethylisoxazol-4-yl)carbonyl]-6,7,8,9-tetrahydro-5H-pyrimido[4,5-d]azepine], the inhibition at 4 µM under setting [2] is not below 90%.
Turning to `COc1cccc(/C=C/C(=O)N2CCc3cnc(N4CCN(C5CCC5)CC4)nc3CC2)c1OC` [Compound 573, 2-(4-cyclobutylpiperazin-1-yl)-7-[(2E)-3-(2,3-dimethoxyphenyl)prop-2-enoyl]-6,7,8,9-tetrahydro-5H-pyrimido[4,5-d]azepine], the inhibition at 4 µM under setting [3] is not below 90%.
For `Cc1ccc(C(C(=O)N2CCc3cnc(N4CCN(C5CCC5)CC4)nc3CC2)c2ccccc2)cc1` (centres unmarked) [Compound 356, 2-(4-cyclobutylpiperazin-1-yl)-7-[(4-methylphenyl)(phenyl)acetyl]-6,7,8,9-tetrahydro-5H-pyrimido[4,5-d]azepine], the inhibition at 4 µM under setting [2] was not below 90%.
For the compound `CCCCCCN1CCc2nc(N3CCN(C4CCC4)CC3)ncc2C1` [Compound 630, 2-(4-cyclobutylpiperazin-1-yl)-6-hexyl-5,6,7,8-tetrahydropyrido[4,3-d]pyrimidine], the inhibition at 4 µM under setting [1] was not below 90%.
As for `CCC(C)CN1CCc2c(ncnc2N2CCN(C3CCC3)CC2)C1` (centres unmarked) [Compound 87, 4-(4-cyclobutylpiperazin-1-yl)-7-(2-methylbutyl)-5,6,7,8-tetrahydropyrido[3,4-d]pyrimidine], under setting [1], the inhibition at 4 µM is not below 90%.
As for `CC(=O)c1ccc(N2CCc3c(ncnc3N3CCN(C4CCC4)CC3)C2)cc1` [Compound 3, 1-{4-[4-(4-Cyclobutylpiperazin-1-yl)-5,8-dihydropyrido[3.4-d]pyrimidin-7(6H)-yl]phenyl}Ethanone], the inhibition at 4 µM (test compound 4 μM, 1 μM histamine, read-out: percent inhibition of agonist-induced GTP-gammaS binding to H3) is not below 90%.
In the case of `Cc1cc(C(=O)N2CCc3cnc(N4CCN(C5CCC5)CC4)nc3CC2)c(C)n1C` [Compound 459, 2-(4-cyclobutylpiperazin-1-yl)-7-[(1,2,5-trimethyl-1H-pyrrol-3-yl)carbonyl]-6,7,8,9-tetrahydro-5H-pyrimido[4,5-d]azepine], the inhibition at 4 µM under setting [3] is not below 90%.
Take `Cc1onc(-c2c(Cl)cccc2Cl)c1C(=O)N1CCc2cnc(N3CCN(C4CCC4)CC3)nc2CC1` [Compound 523, 2-(4-cyclobutylpiperazin-1-yl)-7-{[3-(2,6-dichlorophenyl)-5-methylisoxazol-4-yl]carbonyl}-6,7,8,9-tetrahydro-5H-pyrimido[4,5-d]azepine]: the inhibition at 4 µM under setting [3] was not below 90%.
`Cc1cccc(CN2CCc3c(ncnc3N3CCN(C4CCC4)CC3)C2)c1` [Compound 69, 4-(4-cyclobutylpiperazin-1-yl)-7-(3-methylbenzyl)-5,6,7,8-tetrahydropyrido[3,4-d]pyrimidine]: the inhibition at 4 µM under setting [1] was not below 90%.
Regarding `O=C(c1cc(C(F)(F)F)ccc1Cl)N1CCc2cnc(N3CCN(C4CCC4)CC3)nc2CC1` [Compound 438, 7-[2-chloro-5-(trifluoromethyl)benzoyl]-2-(4-cyclobutylpiperazin-1-yl)-6,7,8,9-tetrahydro-5H-pyrimido[4,5-d]azepine], under setting [3], the inhibition at 4 µM was not below 90%.
Regarding `Cc1cccc(CN2CCc3ncnc(N4CCN(C5CCC5)CC4)c3CC2)n1` [Compound 153, 4-(4-cyclobutylpiperazin-1-yl)-7-[(6-methylpyridin-2-yl)methyl]-6,7,8,9-tetrahydro-5H-pyrimido[4,5-d]azepine], the inhibition at 4 µM under setting [1] is not below 90%.
On the same count and under the same terms, with `CC(C1CCOC1)N1CCc2c(ncnc2N2CCN(C3CCC3)CC2)C1` (centres unmarked) [Compound 127, 4-(4-cyclobutylpiperazin-1-yl)-7-[1-(tetrahydrofuran-3-yl)ethyl]-5,6,7,8-tetrahydropyrido[3,4-d]pyrimidine] the figure was not below 90%; with `c1cc(N2CCCC2)ccc1CN1CCc2nc(N3CCN(C4CCC4)CC3)ncc2C1` [Compound 647, 2-(4-cyclobutylpiperazin-1-yl)-6-(4-pyrrolidin-1-ylbenzyl)-5,6,7,8-tetrahydropyrido[4,3-d]pyrimidine], not below 90%.
Take `Cc1ccsc1C(=O)N1CCc2cnc(N3CCN(C4CCC4)CC3)nc2CC1` [Compound 444, 2-(4-cyclobutylpiperazin-1-yl)-7-[(3-methyl-2-thienyl)carbonyl]-6,7,8,9-tetrahydro-5H-pyrimido[4,5-d]azepine]: the inhibition at 4 µM under setting [3] was not below 90%.
With `CC(c1ccnc2ccccc12)N1CCc2c(ncnc2N2CCN(C3CCC3)CC2)C1` (centres unmarked) [Compound 108, 4-(4-cyclobutylpiperazin-1-yl)-7-(1-quinolin-4-ylethyl)-5,6,7,8-tetrahydropyrido[3,4-d]pyrimidine], the inhibition at 4 µM under setting [1] was not below 90%.
Turning to `CC(C(=O)N1CCc2cnc(N3CCN(C4CCC4)CC3)nc2CC1)(c1ccccc1)c1ccccc1` [Compound 357, 2-(4-cyclobutylpiperazin-1-yl)-7-(2,2-diphenylpropanoyl)-6,7,8,9-tetrahydro-5H-pyrimido[4,5-d]azepine], the inhibition at 4 µM under setting [2] was not below 90%.
